In brackets after ≈: the same amount, converted by molar mass.
Columns and labels:
Format in all cases: cell-based
[1] = test system: Staphylococcus aureus ATCC 6538P; experiment: In vitro agar dilution MIC, organism code AA; details: unit assumed
Description: (§1) Representative compounds of the present invention were assayed in vitro for antibacterial activity as follows: Twelve petri dishes containing successive aqueous dilutions of the test compound mixed with 10 mL of sterilized Brain Heart Infusion (BHI) agar (Difco 0418-01-5) were prepared. Each plate was inoculated with 1:100 (or 1:10 for slow-growing strains, such as Micrococcus and Streptococcus) dilutions of up to 32 different microorganisms, using a Steers replicator block. The inoculated plates were incubated at 35-37° C. for 20 to 24 hours. In addition, a control plate, using BHI agar containing no test compound, was prepared and incubated at the beginning and end of each test.
(§2) An additional plate containing a compound having known susceptibility patterns for the organisms being tested and belonging to the same antibiotic class as the test compound was also prepared and incubated as a further control, as well as to provide test-to-test comparability.
(§3) After incubation, each plate was visually inspected. The minimum inhibitory concentration (MIC) was defined as the lowest concentration of drug yielding no growth, a slight haze, or sparsely isolated colonies on the inoculum spot as compared to the growth control.

[2] = test system: Staphylococcus aureus A5177; experiment: In vitro agar dilution MIC, organism code BB; details: in µg/mL (unit assumed)
Description: as §1, §2, §3

[3] = test system: Staphylococcus aureus A-5278; experiment: In vitro agar dilution MIC, organism code CC; details: unit assumed
Description: as §1, §2, §3

[4] = test system: Staphylococcus aureus CMX 642A; experiment: In vitro agar dilution MIC, organism code DD; details: Table 1B, unit assumed
Description: as §1, §2, §3

[5] = test system: Staphylococcus aureus NCTC10649M; experiment: In vitro agar dilution MIC, organism code EE; details: Table 1B, unit assumed
Description: as §1, §2, §3

[6] = test system: Staphylococcus aureus CMX 553; experiment: In vitro agar dilution MIC, organism code FF; details: Table 1B, unit assumed
Description: as §1, §2, §3

[7] = test system: Staphylococcus aureus 1775; experiment: In vitro agar dilution MIC, organism code GG; details: Table 1B, unit assumed
Description: as §1, §2, §3

[8] = test system: Staphylococcus epidermidis 3519; experiment: In vitro agar dilution MIC, organism code HH; details: Table 1B, in µg/mL (unit assumed)
Description: as §1, §2, §3

[9] = test system: Enterococcus faecium ATCC 8043; experiment: In vitro agar dilution MIC, organism code II; details: Table 1B, unit assumed
Description: as §1, §2, §3

[10] = test system: Streptococcus bovis A-5169; experiment: In vitro agar dilution MIC, organism code JJ; details: Table 1B, unit assumed
Description: as §1, §2, §3

[11] = test system: Streptococcus agalactiae CMX 508; experiment: In vitro agar dilution MIC, organism code KK; details: Table 1B, unit assumed
Description: as §1, §2, §3

[12] = test system: Streptococcus pyogenes EES61; experiment: In vitro agar dilution MIC, organism code LL; details: unit assumed
Description: as §1, §2, §3

[13] = test system: Streptococcus pyogenes 930; experiment: In vitro agar dilution MIC, organism code MM; details: unit assumed
Description: as §1, §2, §3

[14] = test system: Streptococcus pyogenes PIU 2548; experiment: In vitro agar dilution MIC, organism code NN; details: unit assumed
Description: as §1, §2, §3

[15] = test system: Micrococcus luteus ATCC 9341; experiment: In vitro agar dilution MIC, organism code OO; details: Table 1B, unit assumed
Description: as §1, §2, §3

[16] = test system: Micrococcus luteus ATCC 4698; experiment: In vitro agar dilution MIC, organism code PP; details: Table 1B, in µg/mL (unit assumed)
Description: as §1, §2, §3

Escherichia coli JUHL = experiment: In vitro agar dilution MIC, organism code QQ; details: Table 1B, in µg/mL (unit assumed)
Description: as §1, §2, §3

Escherichia coli SS = experiment: In vitro agar dilution MIC, organism code RR; details: Table 1B, in µg/mL (unit assumed)
Description: as §1, §2, §3

Escherichia coli DC-2 = experiment: In vitro agar dilution MIC, organism code SS; details: Table 1B, unit assumed
Description: as §1, §2, §3

Candida albicans CCH 442 = experiment: In vitro agar dilution MIC, organism code TT; details: Table 1B, unit assumed
Description: as §1, §2, §3

[17] = test system: Mycobacterium smegmatis ATCC 114; experiment: In vitro agar dilution MIC, organism code UU; details: Table 1B, in µg/mL (unit assumed)
Description: as §1, §2, §3

[18] = test system: Nocardia asteroides ATCC 9970; experiment: In vitro agar dilution MIC, organism code VV; details: Table 1B, in µg/mL (unit assumed)
Description: as §1
An additional plate containing a compound having known susceptibility patterns for the organisms being tested and belonging to the same antibiotic class as the test compound was also prepared and incubated as a further control, as well as to provide test-to-test comparability. Erythromycin A was used for this purpose.
as §3

[19] = test system: Haemophilis influenzae DILL AMP R; experiment: In vitro agar dilution MIC, organism code WW; details: unit assumed
Description: as §1, §2, §3

[20] = test system: Streptococcus pneumoniae ATCC 6303; experiment: In vitro agar dilution MIC, organism code XX; details: unit assumed
Description: as §1, §2, §3

[21] = test system: Streptococcus pneumoniae GYR 1171; experiment: In vitro agar dilution MIC, organism code YY; details: Table 1B, unit assumed
Description: as §1, §2, §3

[22] = test system: Streptococcus pneumoniae 5979; experiment: In vitro agar dilution MIC, organism code ZZ; details: unit assumed
Description: as §1, §2, §3

[23] = test system: Streptococcus pneumoniae 5649; experiment: In vitro agar dilution MIC, organism code ZZA; details: unit assumed
Description: as §1, §2, §3

Structure (SMILES) | MIC ([1]; Table 1B) [µg/mL] | MIC ([2]; Table 1B) | MIC ([3]; Table 1B) [µg/mL] | MIC [4] [µg/mL] | MIC [5] [µg/mL] | MIC [6] [µg/mL] | MIC [7] [µg/mL] | MIC [8] | MIC [9] [µg/mL] | MIC [10] [µg/mL] | MIC [11] [µg/mL] | MIC ([12]; Table 1B) [µg/mL] | MIC ([13]; Table 1B) [µg/mL] | MIC ([14]; Table 1B) [µg/mL] | MIC [15] [µg/mL] | MIC [16] | MIC (Escherichia coli JUHL) | MIC (Escherichia coli SS) | MIC (Escherichia coli DC-2) [µg/mL] | MIC (Candida albicans CCH 442) [µg/mL] | further results
CC[C@H]1OC(=O)[C@@](C)(F)C(=O)[C@H](C)[C@@H](O[C@@H]2O[C@H](C)C[C@H](N(C)C)[C@H]2O)[C@](C)(OC/C=C/c2ccccc2)C[C@@H](C)C(=O)[C@H](C)[C@H]2NC(=O)O[C@@]21C [Example 7] | 0.05 (≈ 0.0682 µM) | 0.05 | 100 (≈ 136 µM) | 0.05 (≈ 0.0682 µM) | 0.05 (≈ 0.0682 µM) | 0.05 (≈ 0.0682 µM) | 100 (≈ 136 µM) | 0.05 | 0.02 (≈ 0.0273 µM) | ≤ 0.005 | ≤ 0.005 | ≤ 0.005 | 25 (≈ 34.1 µM) | 0.05 (≈ 0.0682 µM) | ≤ 0.005 | 0.02 | 50 | 0.1 | 25 (≈ 34.1 µM) | > 100 | MIC ([12]; Table 1D): ≤ 0.04 µg/mL; MIC ([13]; Table 1D): 16 µg/mL (≈ 21.8 µM); MIC ([14]; Table 1D): 0.25 µg/mL (≈ 0.341 µM); MIC [17]: 0.05; MIC [18]: ≤ 0.005; MIC ([19]; Table 1B): 2 µg/mL (≈ 2.73 µM); MIC ([19]; Table 1D): 2 µg/mL (≈ 2.73 µM); MIC ([20]; Table 1B): ≤ 0.004 µg/mL; MIC ([20]; Table 1D): ≤ 0.04 µg/mL; MIC [21]: ≤ 0.004 µg/mL; MIC ([22]; Table 1B): 64 µg/mL (≈ 87.3 µM); MIC ([22]; Table 1D): 64 µg/mL (≈ 87.3 µM); MIC ([23]; Table 1B): 0.25 µg/mL (≈ 0.341 µM); MIC ([23]; Table 1D): 0.25 µg/mL (≈ 0.341 µM)
CC[C@H]1OC(=O)C(C)(F)C(=O)[C@H](C)[C@@H](O[C@@H]2O[C@H](C)C[C@H](N(C)C)[C@H]2O)[C@](C)(OCC#Cc2ccc(-c3cccs3)s2)C[C@@H](C)C(=O)[C@H](C)[C@H]2NC(=O)O[C@@]21C (some centres unmarked) [Example 28] | 0.05 (≈ 0.061 µM) | 0.1 | > 100 | 0.1 (≈ 0.122 µM) | 0.2 (≈ 0.244 µM) | 0.1 (≈ 0.122 µM) | > 100 | 0.1 | 0.05 (≈ 0.061 µM) | 0.01 (≈ 0.0122 µM) | 0.02 (≈ 0.0244 µM) | 0.02 (≈ 0.0244 µM) | 0.78 (≈ 0.952 µM) | 0.2 (≈ 0.244 µM) | 0.02 (≈ 0.0244 µM) | 0.05 | 100 | 0.78 | 100 (≈ 122 µM) | > 100 | MIC [17]: 0.39; MIC [18]: 0.02; MIC ([19]; Table 1B): 2 µg/mL (≈ 2.44 µM); MIC ([20]; Table 1B): ≤ 0.004 µg/mL; MIC [21]: ≤ 0.004 µg/mL; MIC ([22]; Table 1B): 16 µg/mL (≈ 19.5 µM); MIC ([23]; Table 1B): 0.25 µg/mL (≈ 0.305 µM)
CC[C@H]1OC(=O)[C@@](C)(F)C(=O)[C@H](C)[C@@H](O[C@@H]2O[C@H](C)C[C@H](N(C)C)[C@H]2O)[C@](C)(OC/C=C/c2cnc3ncccc3c2)C[C@@H](C)C(=O)[C@H](C)[C@H]2NC(=O)O[C@@]21C [Example 11] | 0.05 (≈ 0.0637 µM) | 0.05 | > 100 | 0.05 (≈ 0.0637 µM) | 0.05 (≈ 0.0637 µM) | 0.05 (≈ 0.0637 µM) | 100 (≈ 127 µM) | 0.05 | 0.05 (≈ 0.0637 µM) | 0.01 (≈ 0.0127 µM) | 0.01 (≈ 0.0127 µM) | 0.39 (≈ 0.497 µM) | 0.1 (≈ 0.127 µM) | 0.01 (≈ 0.0127 µM) | 0.01 (≈ 0.0127 µM) | 0.05 | 25 | 0.2 | 12.5 (≈ 15.9 µM) | > 100 | MIC [17]: 0.78; MIC [18]: 0.01; MIC ([19]; Table 1B): 2 µg/mL (≈ 2.55 µM); MIC ([20]; Table 1B): ≤ 0.004 µg/mL; MIC [21]: ≤ 0.004 µg/mL; MIC ([22]; Table 1B): 0.125 µg/mL (≈ 0.159 µM); MIC ([23]; Table 1B): 0.25 µg/mL (≈ 0.319 µM)
CC[C@H]1OC(=O)[C@@](C)(F)C(=O)[C@H](C)[C@@H](O[C@@H]2O[C@H](C)C[C@H](N(C)C)[C@H]2O)[C@](C)(OC/C=C/c2cnc3ccc(N(C)C)cc3c2)C[C@@H](C)C(=O)[C@H](C)[C@H]2NC(=O)O[C@@]21C [Example 13] | 0.2 (≈ 0.242 µM) | 0.2 | > 100 | 0.2 (≈ 0.242 µM) | 0.2 (≈ 0.242 µM) | 0.2 (≈ 0.242 µM) | > 100 | 0.2 | 0.1 (≈ 0.121 µM) | 0.02 (≈ 0.0242 µM) | 0.02 (≈ 0.0242 µM) | 0.05 (≈ 0.0605 µM) | 0.78 (≈ 0.943 µM) | 0.2 (≈ 0.242 µM) | 0.02 (≈ 0.0242 µM) | 0.2 | 50 | 0.78 | 100 (≈ 121 µM) | > 100 | MIC [17]: 0.78; MIC [18]: 0.05; MIC ([19]; Table 1B): 8 µg/mL (≈ 9.67 µM); MIC ([20]; Table 1B): 0.06 µg/mL (≈ 0.0726 µM); MIC [21]: 0.06 µg/mL (≈ 0.0726 µM); MIC ([22]; Table 1B): 1 µg/mL (≈ 1.21 µM); MIC ([23]; Table 1B): 0.5 µg/mL (≈ 0.605 µM)
CC[C@H]1OC(=O)C(C)(Cl)C(=O)[C@H](C)[C@@H](O[C@@H]2O[C@H](C)C[C@H](N(C)C)[C@H]2O)[C@](C)(OC)C[C@@H](C)C2=NCCN3C(=O)O[C@@]1(C)[C@H]3[C@H]2C (some centres unmarked) [Example 2] | 25 (≈ 37.2 µM) | 25 | > 100 | 50 (≈ 74.4 µM) | 25 (≈ 37.2 µM) | 25 (≈ 37.2 µM) | > 100 | 25 | 12.5 (≈ 18.6 µM) | 1.56 (≈ 2.32 µM) | 3.1 (≈ 4.61 µM) | 3.1 (≈ 4.61 µM) | > 100 | 6.2 (≈ 9.22 µM) | 3.1 (≈ 4.61 µM) | 6.2 | > 100 | 0.78 | > 100 | > 100 | MIC ([1]; Table 1C): 25 µg/mL (≈ 37.2 µM); MIC ([2]; Table 1C): 25; MIC ([3]; Table 1C): > 100 µg/mL; MIC ([12]; Table 1C): 4 µg/mL (≈ 5.95 µM); MIC ([13]; Table 1C): 128 µg/mL (≈ 190 µM); MIC ([14]; Table 1C): 16 µg/mL (≈ 23.8 µM); MIC [17]: > 100; MIC [18]: 50; MIC ([19]; Table 1B): 32 µg/mL (≈ 47.6 µM); MIC ([19]; Table 1C): 32 µg/mL (≈ 47.6 µM); MIC ([20]; Table 1B): 4 µg/mL (≈ 5.95 µM); MIC ([20]; Table 1C): 4 µg/mL (≈ 5.95 µM); MIC [21]: 4 µg/mL (≈ 5.95 µM); MIC ([22]; Table 1B): > 128 µg/mL; MIC ([22]; Table 1C): > 128 µg/mL; MIC ([23]; Table 1B): 4 µg/mL (≈ 5.95 µM); MIC ([23]; Table 1C): 4 µg/mL (≈ 5.95 µM)
